Data as given in ChEMBL document CHEMBL5661979, “Pharmacological inhibition of BMK1 suppresses tumor growth through promyelocytic leukemia protein” (Cancer Cell, 2010).

Tests used:
[1] = molecular target: T1, Scaffold protein ILK (Homo sapiens) (UniProt Q13418); assay: Inhibition of ILK in human HeLa cells lysate at 2 uM pre incubated for 15 mins followed by ATP acyl phosphate probe addition and measured after 10 mins by LC-MS/MS analysis relative to control; assay type: subcellular; settings: time 25.0 min
T1 sequence (whole entry): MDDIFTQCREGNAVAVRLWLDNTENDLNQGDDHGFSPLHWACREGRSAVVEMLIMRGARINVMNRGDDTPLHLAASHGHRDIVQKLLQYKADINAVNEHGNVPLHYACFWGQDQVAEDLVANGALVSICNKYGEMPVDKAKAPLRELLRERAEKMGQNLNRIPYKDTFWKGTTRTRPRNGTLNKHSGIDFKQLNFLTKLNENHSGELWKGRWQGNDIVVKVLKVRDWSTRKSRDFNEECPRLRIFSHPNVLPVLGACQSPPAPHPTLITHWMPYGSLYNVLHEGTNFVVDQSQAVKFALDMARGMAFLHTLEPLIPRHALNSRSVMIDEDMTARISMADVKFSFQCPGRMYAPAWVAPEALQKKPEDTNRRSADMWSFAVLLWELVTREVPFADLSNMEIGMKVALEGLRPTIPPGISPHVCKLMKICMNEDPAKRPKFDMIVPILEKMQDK

[2] = molecular target: Phosphatidylinositol 4-phosphate 3-kinase C2 domain-containing subunit beta (Homo sapiens, UniProt O00750); assay: Inhibition of PIK3C2B in human HeLa cells lysate at 10 uM pre incubated for 15 mins followed by ATP acyl phosphate probe addition and measured after 10 mins by LC-MS/MS analysis relative to control; assay type: subcellular; settings: time 25.0 min
Phosphatidylinositol 4-phosphate 3-kinase C2 domain-containing subunit beta, sequence (O00750 whole entry, the tested form may be a part, canonical isoform): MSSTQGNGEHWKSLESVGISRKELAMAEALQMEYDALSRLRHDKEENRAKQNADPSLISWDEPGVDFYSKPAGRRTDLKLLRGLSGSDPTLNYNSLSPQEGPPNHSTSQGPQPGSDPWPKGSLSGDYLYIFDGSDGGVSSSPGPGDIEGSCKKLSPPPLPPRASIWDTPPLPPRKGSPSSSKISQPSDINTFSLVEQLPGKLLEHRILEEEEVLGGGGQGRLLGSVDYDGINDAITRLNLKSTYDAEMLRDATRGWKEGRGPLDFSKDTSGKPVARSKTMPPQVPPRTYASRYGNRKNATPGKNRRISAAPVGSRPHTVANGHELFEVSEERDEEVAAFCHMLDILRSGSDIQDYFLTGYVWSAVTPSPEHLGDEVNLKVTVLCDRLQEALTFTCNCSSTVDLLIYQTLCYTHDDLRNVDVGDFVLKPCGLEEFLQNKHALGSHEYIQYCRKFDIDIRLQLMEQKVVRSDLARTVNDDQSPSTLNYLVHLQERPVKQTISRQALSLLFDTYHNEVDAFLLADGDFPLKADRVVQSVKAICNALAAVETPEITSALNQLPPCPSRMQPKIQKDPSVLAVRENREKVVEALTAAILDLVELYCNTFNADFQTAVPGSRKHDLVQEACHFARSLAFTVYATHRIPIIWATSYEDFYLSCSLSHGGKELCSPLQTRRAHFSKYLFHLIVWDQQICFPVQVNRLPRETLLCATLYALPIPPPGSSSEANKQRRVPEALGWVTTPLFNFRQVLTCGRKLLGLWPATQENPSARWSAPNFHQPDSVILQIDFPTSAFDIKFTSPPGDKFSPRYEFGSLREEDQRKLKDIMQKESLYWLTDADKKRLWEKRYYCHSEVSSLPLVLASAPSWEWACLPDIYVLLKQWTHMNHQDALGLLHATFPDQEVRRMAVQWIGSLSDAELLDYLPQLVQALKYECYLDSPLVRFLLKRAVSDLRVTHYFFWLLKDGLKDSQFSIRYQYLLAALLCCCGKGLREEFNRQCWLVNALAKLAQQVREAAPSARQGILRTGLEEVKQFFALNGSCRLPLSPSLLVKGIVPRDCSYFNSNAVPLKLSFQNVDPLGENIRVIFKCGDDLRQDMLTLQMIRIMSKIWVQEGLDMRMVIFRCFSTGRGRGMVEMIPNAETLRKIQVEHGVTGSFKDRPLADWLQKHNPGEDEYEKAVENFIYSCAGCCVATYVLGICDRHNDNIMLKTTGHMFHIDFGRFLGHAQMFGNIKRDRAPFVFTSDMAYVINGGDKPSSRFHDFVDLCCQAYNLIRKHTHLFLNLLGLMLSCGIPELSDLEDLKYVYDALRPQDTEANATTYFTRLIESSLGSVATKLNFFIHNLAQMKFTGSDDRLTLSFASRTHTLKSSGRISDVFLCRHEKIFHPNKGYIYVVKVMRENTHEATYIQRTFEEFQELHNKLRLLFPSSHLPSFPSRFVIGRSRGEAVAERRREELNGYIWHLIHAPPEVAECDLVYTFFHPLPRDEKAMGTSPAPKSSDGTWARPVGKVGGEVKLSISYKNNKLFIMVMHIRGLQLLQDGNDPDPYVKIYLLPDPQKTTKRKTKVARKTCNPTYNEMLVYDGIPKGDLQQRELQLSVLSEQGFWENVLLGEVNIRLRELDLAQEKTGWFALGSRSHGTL

[3] = molecular target: Casein kinase I isoform alpha (Homo sapiens, UniProt P48729); assay: Inhibition of CK1alpha in human HeLa cells lysate at 2 uM pre incubated for 15 mins followed by ATP acyl phosphate probe addition and measured after 10 mins by LC-MS/MS analysis relative to control; assay type: subcellular; settings: time 25.0 min
Casein kinase I isoform alpha, sequence (P48729 2-337 limits assumed): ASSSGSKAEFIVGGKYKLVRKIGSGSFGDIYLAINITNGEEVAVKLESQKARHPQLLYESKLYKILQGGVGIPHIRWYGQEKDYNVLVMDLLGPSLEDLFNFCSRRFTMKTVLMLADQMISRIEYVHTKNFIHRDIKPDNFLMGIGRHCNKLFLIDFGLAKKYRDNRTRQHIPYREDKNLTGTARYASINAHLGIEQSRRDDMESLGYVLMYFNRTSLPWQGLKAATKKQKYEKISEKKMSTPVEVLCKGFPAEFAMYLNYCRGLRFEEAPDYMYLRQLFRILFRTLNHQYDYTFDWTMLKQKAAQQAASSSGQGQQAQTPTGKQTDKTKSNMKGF

[4] = molecular target: Dual specificity mitogen-activated protein kinase kinase 1 (Homo sapiens, UniProt Q02750); assay: Inhibition of MAP2K1 in human HeLa cells lysate pre incubated for 15 mins followed by ATP acyl phosphate probe addition and measured after 10 mins by LC-MS/MS analysis; assay type: subcellular
Dual specificity mitogen-activated protein kinase kinase 1, sequence (Q02750 whole entry): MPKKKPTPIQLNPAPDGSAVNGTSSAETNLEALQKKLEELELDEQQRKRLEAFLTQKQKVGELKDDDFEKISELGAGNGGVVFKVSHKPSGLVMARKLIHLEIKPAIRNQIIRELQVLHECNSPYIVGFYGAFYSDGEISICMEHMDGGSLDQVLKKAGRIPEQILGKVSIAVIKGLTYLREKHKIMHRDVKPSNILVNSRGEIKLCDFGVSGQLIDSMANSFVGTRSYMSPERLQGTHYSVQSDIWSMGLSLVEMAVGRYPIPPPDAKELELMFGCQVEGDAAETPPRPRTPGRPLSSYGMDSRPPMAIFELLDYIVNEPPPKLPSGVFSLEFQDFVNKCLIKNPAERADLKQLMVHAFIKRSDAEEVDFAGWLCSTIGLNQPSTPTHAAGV

[5] = molecular target: T2, Dual specificity mitogen-activated protein kinase kinase 5 (Homo sapiens) (UniProt Q13163); assay: Inhibition of MAP2K5 in human HeLa cells lysate at 2 uM pre incubated for 15 mins followed by ADP acyl phosphate probe addition and measured after 10 mins by LC-MS/MS analysis relative to control; assay type: subcellular; settings: time 25.0 min
T2 sequence (whole entry): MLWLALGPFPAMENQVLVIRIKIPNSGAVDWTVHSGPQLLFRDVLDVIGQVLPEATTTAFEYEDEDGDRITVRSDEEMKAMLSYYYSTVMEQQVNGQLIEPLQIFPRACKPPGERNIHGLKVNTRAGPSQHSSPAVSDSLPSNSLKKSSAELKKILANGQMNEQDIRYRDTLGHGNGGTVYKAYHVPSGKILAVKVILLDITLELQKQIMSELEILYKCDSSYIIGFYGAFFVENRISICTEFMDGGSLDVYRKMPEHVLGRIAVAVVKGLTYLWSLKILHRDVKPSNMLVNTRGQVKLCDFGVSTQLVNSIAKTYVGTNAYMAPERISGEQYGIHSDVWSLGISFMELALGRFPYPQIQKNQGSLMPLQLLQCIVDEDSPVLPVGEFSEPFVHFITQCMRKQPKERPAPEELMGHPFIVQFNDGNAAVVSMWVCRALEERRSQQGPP

[6] = system: Serine/threonine-protein kinase PLK1 (Homo sapiens), P53350 [UNDEFINED MUTATION]; assay: Inhibition of PLK1 splice variant in human HeLa cells lysate at 10 uM pre incubated for 15 mins followed by ADP acyl phosphate probe addition and measured after 10 mins by LC-MS/MS analysis relative to control; assay type: subcellular; settings: time 25.0 min
Serine/threonine-protein kinase PLK1 (Homo sapiens), P53350 [UNDEFINED MUTATION], sequence (P53350 whole entry, looked up, stated change not applied, canonical isoform): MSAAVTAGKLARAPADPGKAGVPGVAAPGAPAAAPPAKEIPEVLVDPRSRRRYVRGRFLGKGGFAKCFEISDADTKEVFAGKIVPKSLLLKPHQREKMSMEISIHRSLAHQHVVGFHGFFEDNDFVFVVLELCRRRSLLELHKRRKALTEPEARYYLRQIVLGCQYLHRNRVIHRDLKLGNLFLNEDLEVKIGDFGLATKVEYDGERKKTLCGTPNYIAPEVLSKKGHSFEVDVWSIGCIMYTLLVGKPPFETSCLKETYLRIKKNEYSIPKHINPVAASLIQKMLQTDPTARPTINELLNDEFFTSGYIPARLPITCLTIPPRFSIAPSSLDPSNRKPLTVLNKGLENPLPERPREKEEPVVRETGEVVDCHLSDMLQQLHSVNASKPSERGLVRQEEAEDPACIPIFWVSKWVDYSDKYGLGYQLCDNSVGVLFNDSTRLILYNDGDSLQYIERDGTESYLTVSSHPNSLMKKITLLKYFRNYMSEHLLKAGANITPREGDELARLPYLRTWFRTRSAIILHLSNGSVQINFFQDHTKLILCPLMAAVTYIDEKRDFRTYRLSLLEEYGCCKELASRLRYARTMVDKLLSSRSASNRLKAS

[7] = molecular target: Serine/threonine-protein kinase Nek7 (Homo sapiens, UniProt Q8TDX7); assay: Inhibition of NEK7 in human HeLa cells lysate pre incubated for 15 mins followed by ATP acyl phosphate probe addition and measured after 10 mins by LC-MS/MS analysis; assay type: subcellular
Serine/threonine-protein kinase Nek7, sequence (Q8TDX7 whole entry): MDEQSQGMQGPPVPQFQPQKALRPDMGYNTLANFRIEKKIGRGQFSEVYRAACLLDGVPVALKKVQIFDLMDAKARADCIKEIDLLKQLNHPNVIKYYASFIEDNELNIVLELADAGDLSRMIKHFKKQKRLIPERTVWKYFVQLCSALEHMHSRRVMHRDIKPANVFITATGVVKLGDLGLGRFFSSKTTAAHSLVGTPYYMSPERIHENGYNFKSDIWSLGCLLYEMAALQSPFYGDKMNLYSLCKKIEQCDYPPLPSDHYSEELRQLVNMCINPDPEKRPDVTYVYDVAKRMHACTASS

[8] = molecular target: MAP/microtubule affinity-regulating kinase 3 (Homo sapiens, UniProt P27448); assay: Inhibition of MARK3 in human HeLa cells lysate at 10 uM pre incubated for 15 mins followed by ADP acyl phosphate probe addition and measured after 10 mins by LC-MS/MS analysis relative to control; assay type: subcellular; settings: time 25.0 min
MAP/microtubule affinity-regulating kinase 3, sequence (P27448 whole entry, looked up): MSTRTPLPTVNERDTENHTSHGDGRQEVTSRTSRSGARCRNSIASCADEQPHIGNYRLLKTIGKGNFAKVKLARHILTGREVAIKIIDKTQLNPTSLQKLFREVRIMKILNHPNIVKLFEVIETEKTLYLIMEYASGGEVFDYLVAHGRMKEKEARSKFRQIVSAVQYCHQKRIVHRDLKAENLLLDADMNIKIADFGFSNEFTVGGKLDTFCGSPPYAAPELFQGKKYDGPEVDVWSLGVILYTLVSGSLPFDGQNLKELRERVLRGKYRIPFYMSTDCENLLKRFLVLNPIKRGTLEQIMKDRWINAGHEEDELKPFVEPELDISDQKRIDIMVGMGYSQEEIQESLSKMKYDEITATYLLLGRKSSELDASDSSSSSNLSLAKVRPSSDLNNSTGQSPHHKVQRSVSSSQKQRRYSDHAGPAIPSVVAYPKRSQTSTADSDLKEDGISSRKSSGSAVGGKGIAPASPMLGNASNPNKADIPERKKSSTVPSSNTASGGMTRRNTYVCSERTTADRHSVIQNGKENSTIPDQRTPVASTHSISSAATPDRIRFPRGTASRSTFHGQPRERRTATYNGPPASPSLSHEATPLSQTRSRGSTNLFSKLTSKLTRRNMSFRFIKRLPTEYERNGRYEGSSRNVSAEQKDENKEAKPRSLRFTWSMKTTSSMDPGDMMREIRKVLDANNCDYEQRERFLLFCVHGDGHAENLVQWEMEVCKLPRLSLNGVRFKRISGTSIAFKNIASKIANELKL

[9] = molecular target: T3, Serine/threonine-protein kinase 3 (Homo sapiens) (UniProt Q13188); assay: Inhibition of MST2 in human HeLa cells lysate at 50 uM pre incubated for 15 mins followed by ADP acyl phosphate probe addition and measured after 10 mins by LC-MS/MS analysis relative to control; assay type: subcellular; settings: time 25.0 min
T3 sequence (whole entry): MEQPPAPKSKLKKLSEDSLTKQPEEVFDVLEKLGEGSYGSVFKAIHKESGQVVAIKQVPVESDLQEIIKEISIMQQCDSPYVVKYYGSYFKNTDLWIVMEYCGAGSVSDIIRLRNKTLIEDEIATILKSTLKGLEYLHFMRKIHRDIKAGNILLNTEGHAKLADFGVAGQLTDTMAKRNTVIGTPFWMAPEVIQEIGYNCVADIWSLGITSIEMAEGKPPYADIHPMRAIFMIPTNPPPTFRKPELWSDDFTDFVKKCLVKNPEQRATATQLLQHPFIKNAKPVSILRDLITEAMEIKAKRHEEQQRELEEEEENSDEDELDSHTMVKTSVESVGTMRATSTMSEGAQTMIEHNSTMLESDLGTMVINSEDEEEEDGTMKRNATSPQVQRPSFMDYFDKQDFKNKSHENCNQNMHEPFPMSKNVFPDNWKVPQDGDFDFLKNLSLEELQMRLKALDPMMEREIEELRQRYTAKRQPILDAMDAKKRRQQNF

[10] = Inhibition of MAP3K2/MAP3K3 in human HeLa cells lysate at 2 uM pre incubated for 15 mins followed by ADP acyl phosphate probe addition and measured after 10 mins by LC-MS/MS analysis relative to control; settings: 25 min, condition cancer

Structure (SMILES): CCOc1cc(N2CCC(O)CC2)ccc1Nc1ncc2c(n1)N(C)c1ccccc1C(=O)N2C
- inhibition [1]: 13.4%
- inhibition [2]: 6.5%
- inhibition [3]: 2.6%
- IC50 [4]: > 50 µM
- inhibition [5]: 19.1%
- inhibition [6]: 0.8%
- IC50 [7]: > 50 µM
- inhibition [8]: 4.8%
- inhibition [9]: 7.2%
- inhibition at 2 µM [10]: 4.6%
